Entries after “also recorded” stand apart in the source; their conditions may differ.
How the values were obtained:
human islets = assay: Glucose-stimulated insulin secretion of purified human cadaveric islets ex vivo; type: cell-based; details: high glucose media; ELISA
Experimental: The islet tissue used in these studies was obtained with institutional review board approval. Pancreas digestion and islet isolation were performed using minor modifications of the Edmonton purification protocol. (Shapiro, […] al. “Islet […] in seven patients with type I diabetes mellitus using a glucocortoid-free immunosuppressive regimen.” New England Journal of Medicine 343(4):230-8, (2000)) The determination of islet cell mass, viability, and purity were also performed. Purified islets were cultured in CMRL 1066 culture media with 10% fetal bovine serum at 37° C. in humidified air (5% CO2) for 18 to 24 hours. The human islet insulin secretory response was performed according to a procedure described by the Edmonton group. (Id.) Briefly, after an overnight culture, islets were incubated with either low or high concentrations of glucose for 2 hours at 37° C. and 5% CO2. The supernatant was collected for insulin measurement. Insulin concentrations in these experiments were analyzed with a human insulin enzyme-linked immunosorbent assay (ELISA) kit (ALPCO Insulin ELISA kit, Windham, N.H.). In some experiments TBZ, DTBZ or epinephrine was added to the cultures before glucose stimulation.

Lewis rats = assay: IPGTT of analogs HG-1 to HG-11, compounds given orally (FIG. 15); type: in vivo, rat; details: 2 mg/kg orally
Experimental: FIG. 15 is a bar graph showing the results of testing various analogs HG-1 to HG-11 in IPGTT glucose tolerance tests in rats. Results for TBZ, emetine, and olanzapine are also shown. Lewis rats fasted for 6 hours were administered the compounds orally (30 min, 2 mg/kg) followed by intraperitoneal glucose injection (0 min, […]), and plasma glucose levels were monitored for 120 mins. Results are presented as AUC percentage of the vehicle. Error bars indicate SEM (n=5).
Racemic HG-2 and its diastereoisomer HG-1 were evaluated for their ability to improve glucose tolerance by performing intraperitoneal glucose tolerance tests (IPGTT) in rats. IPGTT testing is described above. See also Murthy, R., et al., Eur. J. Nucl. Med. Mol. Imaging, 2008, 35(4), 790-797.

VMAT2 in beta cells = target: T1, VMAT2 in beta cells (Rattus norvegicus, UniProt Q01827); assay: PET study: displacement of [11C]DTBZ in the pancreas by cold analog; type: in vivo; details: cold compound 2 mg/kg injected 30 min after radioligand; relative to DTBZ
T1 construct: from tissue; host or cells: pancreas (beta cells) of living Lewis rats
T1 sequence (Q01827 whole entry): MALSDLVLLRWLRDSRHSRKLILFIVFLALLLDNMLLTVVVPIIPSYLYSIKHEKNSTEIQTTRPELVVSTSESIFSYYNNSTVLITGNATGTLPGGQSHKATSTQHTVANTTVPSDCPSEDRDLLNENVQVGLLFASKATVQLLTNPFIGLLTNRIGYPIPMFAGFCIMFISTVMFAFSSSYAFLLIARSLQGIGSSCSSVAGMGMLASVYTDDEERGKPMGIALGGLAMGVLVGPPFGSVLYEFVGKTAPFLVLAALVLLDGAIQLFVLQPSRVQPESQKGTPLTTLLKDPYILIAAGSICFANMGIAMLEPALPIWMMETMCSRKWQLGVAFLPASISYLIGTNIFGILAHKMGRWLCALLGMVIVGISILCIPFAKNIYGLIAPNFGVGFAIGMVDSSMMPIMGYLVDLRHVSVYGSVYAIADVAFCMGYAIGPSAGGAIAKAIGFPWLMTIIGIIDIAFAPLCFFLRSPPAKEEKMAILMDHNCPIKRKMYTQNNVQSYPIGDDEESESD
Experimental: PET scans were performed on anesthetized 12-14 week old Lewis male rats injected with radioligand [^11C]DTBZ (0 min, 0.5-1.0 μCi/gm body weight, specific activity >[…]) and cold compound 8 (HG-3) (30 mins, 2 mg/kg). The fraction of radioligand in the pancreas relative to the total amount injected was calculated and plotted versus time after injection. Error bars indicate SEM (n=3).
To test binding to VMAT2 in beta cells, PET scans were performed on 12-14 week old Lewis Male rats. Prior to imaging, the animals were anesthetized by isoflurane inhalation. After a transmission scan of the area of interest had been acquired (used to perform attenuation correction of the emission data), the radioligand [11C]DTBZ was administered (0.5-1.0 μCi/gm) in saline as bolus injection via the penile vein. PET scans of the animals were acquired dynamically to 90 min post injection on a Concorde microPET-R4 (CTI Molecular Imaging, Knoxville, Tenn., USA). The scanner provided a 100×80 mm field of view with a reconstructed resolution of 2.25 mm in the central 40 mm of the field of view. At thirty minutes post injection of [11C]DTBZ, the animals received a second injection via the penile vein of cold analog. […]

[1] = target: T2, dipeptidyl peptidase IV (DDP-IV) (Homo sapiens, UniProt P27487); assay: Effect on dipeptidyl peptidase IV in vitro (BPS Bioscience assays); type: biochemical; details: concentrations up to 10 μM; data not shown
T2 construct: purchased BPS Bioscience, Inc. (San Diego, Calif.)
T2 sequence (P27487 whole entry): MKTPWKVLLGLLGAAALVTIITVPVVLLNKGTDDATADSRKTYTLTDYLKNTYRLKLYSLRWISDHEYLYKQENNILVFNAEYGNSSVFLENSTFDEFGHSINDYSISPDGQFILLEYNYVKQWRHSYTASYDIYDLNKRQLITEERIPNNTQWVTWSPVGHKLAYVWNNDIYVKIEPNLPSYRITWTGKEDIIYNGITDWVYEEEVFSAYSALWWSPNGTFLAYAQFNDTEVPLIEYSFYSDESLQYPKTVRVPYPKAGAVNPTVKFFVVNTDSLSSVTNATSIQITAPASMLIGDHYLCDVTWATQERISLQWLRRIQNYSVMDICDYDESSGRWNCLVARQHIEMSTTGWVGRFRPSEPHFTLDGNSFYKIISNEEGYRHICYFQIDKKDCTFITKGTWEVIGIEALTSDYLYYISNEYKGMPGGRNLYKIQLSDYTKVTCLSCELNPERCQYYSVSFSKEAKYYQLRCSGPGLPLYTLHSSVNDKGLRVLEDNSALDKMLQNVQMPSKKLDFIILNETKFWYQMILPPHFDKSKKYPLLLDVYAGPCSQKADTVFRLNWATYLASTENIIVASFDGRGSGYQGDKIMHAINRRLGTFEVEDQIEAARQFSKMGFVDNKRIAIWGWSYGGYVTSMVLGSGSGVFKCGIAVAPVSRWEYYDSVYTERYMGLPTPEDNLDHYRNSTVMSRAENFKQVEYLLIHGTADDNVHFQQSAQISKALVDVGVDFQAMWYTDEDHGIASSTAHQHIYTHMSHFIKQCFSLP
Experimental: The effect of HG-3 on DDP-IV was determined by assays provided by BPS Bioscience, Inc. (San Diego, Calif.).

SMILES | insulin secretion by human islets after stimulation by high concentrations of glucose (human islets) | decrease of the AUC IPGTT (area under the blood glucose concentration-time curve) (Lewis rats; 30 min before i.p. glucose, relative to vehicle, n=5) [%] | hypoglycemic activity in IPGTT compared with TBZ / HG-3 (Lewis rats; FIG. 15) | displacement of [11C]DTBZ in the endocrine pancreas / binding to VMAT2 (VMAT2 in beta cells) | effect on DDP-IV in vitro [1]
COc1cc2c(cc1OC)[C@@H]1C[C@H](O)[C@@H](CC(C)C)CN1CC2 [DTBZ, dihydrotetrabenazine] | significantly enhanced the amount of insulin secreted; also recorded: enhances glucose-stimulated insulin secretion |  |  |  | 
COc1ccc(C2CC(OCC(C)C)=CC(=O)N2)cc1OC (stereo not shown) [HG-3, 6-(3,4-dimethoxyphenyl)-4-isobutoxy-5,6-dihydropyridin-2(1H)-one] |  | 45 | potent hypoglycemic effect; also recorded: significant decrease in blood glucose levels as compared to TBZ | did not significantly displace | negative
COc1ccc(C2CC(O)C(CC(C)C)C(=O)N2)cc1OC (stereo not shown) [HG-4] |  |  |  | weak binding | 
CNC[C@H](O)c1ccc(O)c(O)c1 [epinephrine, L-epinephrine bitartrate] | inhibited secretion of insulin |  |  |  | 
